The structures appear in SMILES notation.

One data set has as its system p-gp in PC3-DR cells. The data set can be described thus: Western blotting, p-gp expression. The format is cell-based, human. Particulars: 48 h, up to 6 µM. As to the method:
(§1) Number of replicates n = 3. […] Viability was measured using an MTT assay. Number of replicates n = 3.
(§2) It is important to note that a reduction in p-gp activity could be conditioned by p-gp degradation or cell death-related processes. Consequently, using a Western blotting analysis, we measured p-gp expressional levels in the treated PC3-DR cells. […] Thus, the observed effect on p-gp activity seems to be exclusively related to the interaction of NB with p-gp rather than result from any cell death-related events.
(§3) The Western blot assay was executed as previously described: 1 × 10^6 cells were seeded in Petri dishes (ø 6 cm, 5 mL/dish) and incubated overnight. On the next day, the cells were treated with the compounds in fresh culture media (5 mL/dish) for the indicated time. Next, cells were harvested with a cell scraper and lysed in lysis buffer including protease and phosphatase inhibitors cocktail (Roche, Mannheim, Germany). Cell debris were removed from the protein lysates via centrifugation. Afterwards, the cell-free protein mixtures were separated in gradient ready-made Mini-PROTEAN® TGX Stain-Free^TM gels (Bio-Rad, Hercules, CA, USA) using SDS-PAGE (sodium dodecylsulfate polyacrylamide gel electrophoresis). Then, the proteins were blotted onto ø 0.2 µm pore PVDF membrane. […] The signals were detected using the ECL chemiluminescence system (Thermo Scientific, Rockford, IL, USA).
Background: Immunoblotting shows a protein as a band on a membrane.

Another data set has as its system noncancer cells. Briefly: MTT assay, mean IC50 in noncancer cell panel. In kind it is cell-based. The settings on record: Homo sapiens, mean over PNT2, RWPE-1, HEK293, MRC-9, 48 h. From the text: (§4) To examine the anticancer potential and selectivity of NB, we used a panel of six human prostate cancer cell lines, harboring different levels of treatment resistance to representatively reflect the heterogeneity of the disease. […] Additionally, four human noncancer cells lines were utilized in order to determine the selectivity of NB towards prostate cancer cells, i.e., prostate noncancer PNT2 and RWPE-1 cells, human embryonic kidney HEK 293T cells, and human fibroblasts MRC-9. The different cell lines were treated with NB and the cell viability was examined using MTT assay (Figure 1). The mean IC50 of NB and docetaxel (used as a reference substance) in noncancerous cell lines was divided by the mean IC50 in the prostate cancer cell lines to determine the selectivity index (SI).
The MTT assay was used to monitor the effect of the drugs on cell viability in terms of metabolic activity, as previously reported. First, preincubation of the cells in 96-well plates (6 × 10^3 cells/well in 100 μL/well) was performed overnight in the correspondent culture medium. Next, the medium was exchanged for fresh medium containing the investigated compounds or a vehicle (100 μL/well). […] Finally, 50 μL/well of DMSO were added to solve the formed formazan crystals produced by the metabolic active cells and Infinite F200PRO reader (TECAN, Männedorf, Switzerland) was used to measure the cell viability. […]

The subject of a further data set is 22Rv1 cells. The data set can be described thus: Trypan blue exclusion assay. The format is cell-based. Particulars: Homo sapiens, 22Rv1, trypan blue exclusion. As to the method:
Figure 2 Trypan blue exclusion assay. 22Rv1 cells were treated for 48 h (A) or 168 h (B) with the indicated concentrations of NB. The cells were harvested, stained, and counted with an automatic Vi-CELL cell counter device. Number of replicates n = 3.
The trypan blue exclusion assay was used to monitor the effect of the drugs on cell viability regarding cellular membrane integrity and was performed as described before. In brief, cells (2 × 10^5 cells/well) were seeded in 6-well plates (1 mL/well) and incubated overnight. Next, the media was substituted with fresh media (1 mL/well) containing drugs at indicated concentrations. Cells were treated for 48 h, harvested by trypsination, and stained with trypan blue. The automatic Beckman Coulter Vi-CELL (Beckman Coulter, Krefeld, Germany) was used to count trypan blue-positive and -negative cells. Trypan blue-negative cells were postulated to have an intact cellular membrane (i.e., alive cells), whereas trypan blue-positive cells were assumed to have damaged cellular membrane (i.e., dead cells).

The next data set has as its system prostate cancer cells. The data set can be described thus: MTT assay, mean IC50 in cancer cell panel and selectivity index. The format is cell-based, human.
Description: as §4
The MTT assay was used to monitor the effect of the drugs on cell viability in terms of metabolic activity, as previously reported. First, preincubation of the cells in 96-well plates (6 × 10^3 cells/well in 100 μL/well) was performed overnight in the correspondent culture medium. Next, the medium was exchanged for fresh medium containing the investigated compounds or a vehicle (100 μL/well). Cells were then incubated for 48 h, unless otherwise stated. Then, 10 μL/well of 3-(4,5-dimethylthiazol-2-yl)-2,5-diphenyltetrazolium bromide reagent (MTT, 5 mg/mL) were added. After 2–4 h of additional incubation the media was removed, and the plates were dried. Finally, 50 μL/well of DMSO were added to solve the formed formazan crystals produced by the metabolic active cells and Infinite F200PRO reader (TECAN, Männedorf, Switzerland) was used to measure the cell viability. The results were proceeded with a GraphPad Prism software v.9.1.1 (GraphPad Software, San Diego, CA, USA). Cells treated with the solvent of the drugs alone were used as a control (100% alive cells). The effect of the drugs on cell viability is represented as IC50.

The next data set deals with PC-3. Also noted: method as in PMID 27355960. The settings on record: cited from earlier work.
The subject of data set [1] is caspase-3 in PC3-DR cells. Briefly: Western blotting, caspase-3 cleavage. In kind it is cell-based, human. The settings on record: 48 h. As to the method:
as §1, §2, §3

The test system of the next data set is VCaP. The data set can be described thus: Colony formation assay. In kind it is cell-based, human. The settings on record: 48 h treatment then 14 days, nanomolar concentrations. As to the method:
(§5) Next, we investigated the effect of NB on the ability of cancer cells to form colonies from single cells using a colony formation assay and a preplating mode. […] However, this speculation awaits further confirmation in vivo.
(§6) Figure 3 Colony formation assay. The human cancer cells were seeded in 6-well plates and treated for 48 h with the indicated concentrations of NB. Then, the media was exchanged, and the plates were incubated for 14 days, which was followed by fixation, staining, and counting. Number of replicates n = 3. Statistical significance: * p < 0.05 (ANOVA).

The test system of the next data set is 22Rv1. The data set can be described thus: Colony formation assay. The format is cell-based, human. The settings on record: 22Rv1, 48 h treatment then 14 days, nanomolar concentrations. As to the method: as §5, §6
The subject of another data set is PC3. Briefly: Colony formation assay. The format is cell-based, human. Particulars: PC3, 48 h treatment then 14 days, nanomolar concentrations. As to the method: as §5, §6
In data set [2] the target is p-glycoprotein (p-gp, MDR1) in PC3-DR cells (Homo sapiens, UniProt P08183). The data set can be described thus: Calcein-AM exclusion assay, p-glycoprotein activity.
Chain of p-glycoprotein (p-gp, MDR1) in PC3-DR cells (P08183 whole entry): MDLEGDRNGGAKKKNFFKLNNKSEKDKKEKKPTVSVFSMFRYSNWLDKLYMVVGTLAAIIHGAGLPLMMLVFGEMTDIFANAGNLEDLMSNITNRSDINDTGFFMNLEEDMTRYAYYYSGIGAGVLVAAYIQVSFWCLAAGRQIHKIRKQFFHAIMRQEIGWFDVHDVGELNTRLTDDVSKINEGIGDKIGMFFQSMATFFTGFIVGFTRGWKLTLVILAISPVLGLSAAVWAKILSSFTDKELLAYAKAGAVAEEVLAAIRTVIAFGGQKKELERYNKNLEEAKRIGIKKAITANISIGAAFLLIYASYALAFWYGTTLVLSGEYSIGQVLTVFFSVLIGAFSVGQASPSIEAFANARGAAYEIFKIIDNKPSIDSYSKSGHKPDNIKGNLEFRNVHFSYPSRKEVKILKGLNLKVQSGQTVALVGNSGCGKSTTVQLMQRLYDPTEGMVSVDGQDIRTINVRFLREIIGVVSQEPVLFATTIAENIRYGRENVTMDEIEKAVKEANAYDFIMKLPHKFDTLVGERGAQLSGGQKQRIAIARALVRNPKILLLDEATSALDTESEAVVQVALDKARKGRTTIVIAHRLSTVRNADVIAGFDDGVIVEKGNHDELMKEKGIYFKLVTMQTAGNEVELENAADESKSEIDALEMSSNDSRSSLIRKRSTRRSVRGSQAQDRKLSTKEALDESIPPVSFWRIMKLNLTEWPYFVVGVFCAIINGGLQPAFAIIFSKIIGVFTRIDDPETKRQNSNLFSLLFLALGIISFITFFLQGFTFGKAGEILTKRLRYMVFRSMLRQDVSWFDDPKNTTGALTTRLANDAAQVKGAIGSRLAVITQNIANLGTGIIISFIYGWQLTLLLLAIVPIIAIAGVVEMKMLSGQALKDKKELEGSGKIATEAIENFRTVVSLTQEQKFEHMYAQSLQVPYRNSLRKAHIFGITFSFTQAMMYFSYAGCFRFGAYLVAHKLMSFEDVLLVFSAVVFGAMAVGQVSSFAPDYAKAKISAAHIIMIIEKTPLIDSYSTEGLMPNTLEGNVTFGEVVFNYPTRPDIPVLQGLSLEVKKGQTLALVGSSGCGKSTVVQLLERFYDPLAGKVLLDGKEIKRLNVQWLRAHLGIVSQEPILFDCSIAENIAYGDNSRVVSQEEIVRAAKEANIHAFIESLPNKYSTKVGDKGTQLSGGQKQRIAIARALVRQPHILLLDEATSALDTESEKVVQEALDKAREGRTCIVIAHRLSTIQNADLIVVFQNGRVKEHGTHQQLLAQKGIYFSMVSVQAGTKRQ
Description: To further understand the interactions of NB and p-gp, and the effect of NB on p-gp activity, we performed a calcein-AM-exclusion assay. Consequently, p-gp overexpressing PC3-DR cells were chosen as a test model. This assay utilizes calcein-AM (calcein acetoxymethyl ester), a nonfluorescent dye that enters cells through passive diffusion and exits cells through p-gp. Metabolic active cells contain cytosolic esterases that hydrolyze calcein-AM into its green-fluorescent form (calcein). The green fluorescence can be further measured. However, in p-gp overexpressing cells, calcein-AM is excreted out of the cell before it is metabolized. […] Application of p-gp inhibitors, such as tariquidar (TQD), leads to the accumulation of calcein-AM/calcein inside the cells and, therefore, to increased fluorescence. […] In our experiments, PC3-DR cells were exposed to NB for 30 min followed by incubation with calcein-AM.
(A) Effect of NB on calcein accumulation (measures as green fluorescence) in PC3-DR cells. The effect was measures following 30 min incubation with the drug. P-gp inhibitor tariquidar (TQD, 50 nM) was used as a positive control. Number of replicates n = 3.
The experiment was performed as previously described [42]. […] The green fluorescence was measured with Infinite F200PRO reader (TECAN, Männedorf, Switzerland). […]
Another data set has as its system LNCaP. Details: method as in PMID 27355960. The settings on record: cited from earlier work.
For data set [3], the system named is mouse lymphoma cells L5178Y. Details: method as in doi:10.1016/j.phytol.2014.12.010. The settings on record: cited from earlier work.

As a reminder, the IC50 is the concentration at which inhibition is half-maximal. Turning to `COc1ccc(C2SSC34CC5(O)C(Cl)C=CC(O)C5ON3C(=O)C2N(C)C4=O)c(O)c1OC` (stereo not drawn) [NB, N-methylpretrichodermamide B], the p-gp expression result in the data set with p-gp in PC3-DR cells is reported as “no significant changes in p-gp expression”. For the same molecule, the IC50 in the data set on noncancer cells was 15500 nM; with 22Rv1 cells (48 h) it was 129 ± 62 nM; with 22Rv1 cells (168 h), 276 ± 58 nM; in the data set with prostate cancer cells (Homo sapiens, mean over PC3, PC3-DR, DU145, 22Rv1, VCaP, LNCaP, 48 h, MTT), 6460 nM; in the data set on PC-3 it was 5110 nM; in the data set on LNCaP it was 1760 nM. The IC50 in [3] is 2000 nM. Also, the “Selectivity Index (SI)” value with prostate cancer cells ([mean IC50 in noncancer cells]/[mean IC50 in cancer cells]) turned out to be 2.4. Further, in [1], the “concentration at which cleavage of caspase-3 was detected” value amounted to 6 µM. The colony-formation ability result in the data set with VCaP, in the data set with 22Rv1 and in the data set on PC3 was “inhibit the colony-formation ability” throughout. Moreover, the “calcein accumulation (green fluorescence), p-gp inhibition” value in data set [2] (30 min exposure, nanomolar concentrations, dose-dependent) is given as “significantly increased the green fluorescence”. Also, the “concentration at which an inhibitory effect on p-gp activity was already detected” value in data set [2] (calcein-AM, noncytotoxic concentration) is 312.5 nM.

(Values after article PMC9605374 (Marine Drugs, 2022).)
